The values below come from patent publication US6479531B1, “Gastrin and cholecystokinin receptor ligands” (James Black Foundation Limited, priority 1998, dated 2002).

The target in one experiment is T1, gastrin receptor (Rattus norvegicus, UniProt P30553).
T1 construct: The stomach was excised and flushed with ca. 1 ml of unbuffered physiological saline solution; from tissue; host or cells: isolated whole stomach of immature rats (ca. 21 days old)
T1 sequence (P30553 1-452): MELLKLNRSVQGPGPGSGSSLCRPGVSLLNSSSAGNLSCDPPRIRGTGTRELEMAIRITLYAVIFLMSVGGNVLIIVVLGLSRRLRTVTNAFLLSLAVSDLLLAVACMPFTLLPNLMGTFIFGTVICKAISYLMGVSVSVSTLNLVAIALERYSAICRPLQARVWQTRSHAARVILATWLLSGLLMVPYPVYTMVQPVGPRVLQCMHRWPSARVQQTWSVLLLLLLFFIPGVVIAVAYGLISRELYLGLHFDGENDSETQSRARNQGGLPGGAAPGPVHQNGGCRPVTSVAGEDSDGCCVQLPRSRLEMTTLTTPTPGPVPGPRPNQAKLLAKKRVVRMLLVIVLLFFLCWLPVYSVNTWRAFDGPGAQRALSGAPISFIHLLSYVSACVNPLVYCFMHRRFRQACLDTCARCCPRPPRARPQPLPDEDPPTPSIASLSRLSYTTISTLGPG
Description: gastrin antagonist activity in immature rat stomach assay (pentagastrin dose-response, acid secretion). Particulars: isolated immature rat stomach, cumulative pentagastrin dose-response curves, read-out: Gastrin pKb (converted). The essentials: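 Gastrin antagonism was measured as the effect on cumulative pentagastrin dose-response curves of acid output, recorded by pH electrode in the perfusate of an excised immature rat stomach (ca. 21 days old). Test compound was placed in the serosal bath (37°, 3×10^−8 M 5-methylfurmethide) 60 min before pentagastrin.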

The next experiment concerns the target T2, CCKA receptor (Cavia porcellus, UniProt Q63931).
T2 construct: The pancreatata were removed from male guineau-pigs (200-300 g; Dunkin Hartley); from tissue; host or cells: pancreas membranes of male Dunkin Hartley guinea-pigs
T2 sequence (Q63931 1-430): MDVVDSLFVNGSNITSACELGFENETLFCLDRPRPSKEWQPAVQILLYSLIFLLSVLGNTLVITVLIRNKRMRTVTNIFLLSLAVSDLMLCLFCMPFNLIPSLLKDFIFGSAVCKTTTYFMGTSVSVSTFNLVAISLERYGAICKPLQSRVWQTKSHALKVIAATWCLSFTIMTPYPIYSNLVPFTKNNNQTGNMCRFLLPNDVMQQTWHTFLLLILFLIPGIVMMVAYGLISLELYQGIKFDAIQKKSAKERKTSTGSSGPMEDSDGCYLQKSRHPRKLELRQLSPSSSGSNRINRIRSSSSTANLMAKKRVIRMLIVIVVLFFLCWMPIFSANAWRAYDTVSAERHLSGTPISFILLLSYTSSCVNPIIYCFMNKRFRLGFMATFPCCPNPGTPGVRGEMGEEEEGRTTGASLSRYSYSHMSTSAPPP
Description: CCKA binding assay in guinea-pig pancreas membranes. Particulars: [125I]-CCK8(S) 200 pM, with 0.375 μM PD134,308, read-out: CCKA pKi (converted). The procedure:
The compounds of certain examples were also tested in a CCKA binding assay as follows:
The pancreatata were removed from male guineau-pigs (200-300 g; Dunkin Hartley) and placed in ice-cold HEPES buffer (pH 7.2 @ 21±3° C.). The pancreatata were homogenised in 40 ml ice-cold HEPES buffer using a polytron (Brinkmann, PT10, setting 10) 4×1 second. The homogenate was centrifuged at 39,800 g for 15 min at 4° C. The supernatant was discarded and the pellet re-suspended using a Teflon-in-glass homogeniser in 20 volumes of fresh buffer and re-centrifuged as above. The final pellet was re-suspended using a Teflon-in-glass homogeniser to a tissue concentration of 1 mg.ml^−1 (original weight), and filtered through a 500 μm pore-size Nytex mesh.
The membranes (400 μl; containing 0.375 μM PD134,308) were incubated for 150 minutes at 21±3° C. in a final volume of 0.5 ml with HEPES buffer containing [^125I]-CCK8 (S) (50 μl; 200 pM) and competing compound. Total and non-specific binding of [^125I]-CCK8 (S) were defined using 50 μl of buffer and 50 μ of 100 nM L-364,718 respectively. The assay was terminated by rapid filtration through pre-soaked Whatman GF/B filters using a Brandell Cell Harvetser. The filters were washed (3×3 ml) with ice-cold 50 mM Tris HCl (pH 7.4 @ 4° C.) and bound radioactivity was determined by counting (1 min) in a gamma counter.

Another experiment deals with T3, CCKB receptor (Mus musculus, UniProt P56481).
T3 construct: The whole brains from male mice (CD1 22-25 g; Charles River) were removed; from tissue; host or cells: cerebral cortex membranes of male CD1 mice
T3 sequence (P56481 1-453): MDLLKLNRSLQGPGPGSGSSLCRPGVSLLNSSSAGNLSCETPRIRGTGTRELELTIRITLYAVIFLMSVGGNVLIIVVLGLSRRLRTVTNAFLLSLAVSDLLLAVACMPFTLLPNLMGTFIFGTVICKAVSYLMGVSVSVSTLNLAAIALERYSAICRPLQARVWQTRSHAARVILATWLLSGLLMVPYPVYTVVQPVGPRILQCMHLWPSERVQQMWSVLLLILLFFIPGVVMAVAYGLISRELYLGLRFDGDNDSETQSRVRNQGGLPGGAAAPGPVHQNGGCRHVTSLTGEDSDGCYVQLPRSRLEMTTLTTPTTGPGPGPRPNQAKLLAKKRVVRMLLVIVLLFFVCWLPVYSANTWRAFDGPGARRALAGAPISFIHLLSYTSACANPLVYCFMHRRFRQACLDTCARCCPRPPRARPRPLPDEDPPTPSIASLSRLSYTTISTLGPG
In words: CCKB receptor radioligand binding assay in mouse cortical membranes. Particulars: [125I]-CCK8(S) 200 pM, 150 min at 21±3°, read-out: CCKB pKi (converted). The essentials:
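Bound radioactivity was gamma-counted after rapid GF/B filtration and cold 50 mM Tris-HCl (pH 7.4) washes. The tissue was cerebral cortex from male CD1 mice, prepared as twice-centrifuged membranes in pH 7.2 HEPES/NaCl/KCl/MgCl2/EDTA buffer with bacitracin at 20 mg/ml original wet weight.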

Regarding `Cc1ccc(NC(=O)c2nc(C3CC4C=CC3C4)[nH]c2CCC23CC4CC(CC(C4)C2)C3)cc1C(=O)O` (racemic) [Example 211, (±)-endo-5-{[5-(2-Adamantan-1-yl-ethyl)-2-bicyclo[2.2.1]hept-5-en-2-yl-1H-imidazole-4-carbonyl]-amino}-2-methyl-benzoic Acid], the Kb at gastrin receptor was 2.57 nM. For the same compound, the Ki at CCKA receptor was 100 nM; at CCKB receptor, 2.29 nM.

As for `O=C(O)c1cccc(NC(=O)c2[nH]c(C3CCCCC3)nc2CCC23CC4CC(CC(C4)C2)C3)c1` [Example 76, 3-{[5-(2-Adamantan-1-yl-ethyl)-2-cyclohexyl-1H-imidazole-4-carbonyl]-amino}-benzoic Acid], on gastrin receptor, the Kb was 4.9 nM. Further, the Ki on CCKA receptor was 631 nM; at CCKB receptor it was 25.1 nM.

As for `Cc1cc(C)c(-c2nc(C(=O)Nc3ccc(C)c(C(=O)O)c3)c(CCC34CC5CC(CC(C5)C3)C4)[nH]2)c(C)c1` [Example 155, 5-{[5-(2-Adamantan-1-yl-ethyl)-2-(2,4,6-trimethyl-phenyl)-1H-imidazole-4-carbonyl]-amino}-2-methyl-benzoic Acid], the Kb on gastrin receptor is 3.24 nM. Besides, the Ki on CCKA receptor was 126 nM; on CCKB receptor, 2.88 nM.

Regarding `Cc1ccc(NC(=O)c2[nH]c(C3(C)CCCCC3)nc2CCC23CC4CC(CC(C4)C2)C3)cc1C(=O)O` [Example 200, 5-{[5-(2-Adamantan-1-yl-ethyl)-2-(1-methyl-cyclohexyl)-1H-imidazole-4-carbonyl}-amino)-2-methyl-benzoic Acid], the Kb on gastrin receptor was 0.891 nM. Also, the Ki is 251 nM at CCKA receptor and 3.8 nM on CCKB receptor.

On to `O=C(O)c1cccc(NC(=O)c2nc(C3CCCCC3)[nH]c2COC23CC4CC(CC(C4)C2)C3)c1` [Example 216, 3-{[5-(Adamantan-1-yloxymethyl)-2-cyclohexyl-1H-imidazole-4-carbonyl]-amino}-benzoic Acid], for which, on gastrin receptor, the Kb was 0.871 nM. Further, the values for the Ki on CCKA receptor and at CCKB receptor were 501 nM and 12.6 nM, respectively.

As to `O=C(O)Cc1cccc(NC(=O)c2nc(C3CCCCC3)[nH]c2COC23CC4CC(CC(C4)C2)C3)c1` [Example 219, (3-{[5-(Adamantan-1-yloxymethyl)-2-cyclohexyl-1H-imidazole-4-carbonyl]-amino}-phenyl)-acetic Acid], the Kb on gastrin receptor is 69.2 nM. Moreover, the Ki on CCKA receptor was 501 nM.

With `O=C(O)c1cccc(NC(=O)c2nc(C34CCC(CC3)CC4)[nH]c2COC23CC4CC(CC(C4)C2)C3)c1` [Example 221, 3-{[5-(Adamantan-1-yloxymethyl)-2-bicyclo[2.2.2]oct-1-yl-1H-imidazole-4-carbonyl]-amino}-benzoic Acid], at gastrin receptor, the Kb is 0.708 nM. Further, the Ki at CCKA receptor was 794 nM.

For the compound `O=C(O)Cc1cccc(NC(=O)c2nc(C34CCC(CC3)CC4)[nH]c2COC23CC4CC(CC(C4)C2)C3)c1` [Example 224, (3-{[5-(Adamantan-1-yloxymethyl)-2-bicyclo[2.2.2]oct-1-yl-1H-imidazole-4-carbonyl]-amino}-phenyl)-acetic Acid], the Kb on gastrin receptor is 18.2 nM. Further, the Ki at CCKA receptor was 631 nM.

For `O=C(O)c1cccc(NC(=O)c2nc([C@H]3CC4C=C[C@@H]3C4)[nH]c2COC23CC4CC(CC(C4)C2)C3)c1` [Example 235, endo-3-{[5-(Adamantan-1-yloxymethyl)-2-((1S,2S)-bicyclo[2.2.1]hept-5-en-2-yl)-1H-imidazole-4-carbonyl]-amino}-benzoic Acid], the Kb at gastrin receptor was 3.02 nM. In addition, on CCKA receptor, the Ki was 2510 nM.

In the case of `O=C(O)c1cccc(NC(=O)c2nc([C@@H]3CC4C=C[C@H]3C4)[nH]c2COC23CC4CC(CC(C4)C2)C3)c1` [Example 236], the Kb on gastrin receptor is 1.05 nM. Besides, the Ki at CCKA receptor is 794 nM.

For the compound `Cc1ccccc1-c1nc(C(=O)Nc2ccc(Br)c(C(=O)O)c2)c(CCC23CC4CC(CC(C4)C2)C3)[nH]1` [Example 246, 5-{[5-(2-Adamantan-1-yl-ethyl)-2-o-tolyl-1H-imidazole-4-carbonyl]-amino}-2-bromo-benzoic Acid], the Kb on gastrin receptor was 832 nM. The Ki at CCKB receptor is 3.63 nM.

Consider `Cc1ccc(C(=O)O)cc1NC(=O)c1nc(C2CCCCC2)[nH]c1CCC12CC3CC(CC(C3)C1)C2` [Example 252, 3-{[5-(2-Adamantan-1-yl-ethyl)-2-cyclohexyl-1H-imidazole-4-carbonyl]-amino}-4-methylbenzoic Acid], for which the Kb at gastrin receptor is 263 nM. For the same compound, the Ki at CCKB receptor is 170 nM.

In the case of `Cc1c(NC(=O)c2nc(C3CCCCC3)[nH]c2CCC23CC4CC(CC(C4)C2)C3)cccc1C(=O)O` [Example 253, 3-{[5-(2-Adamantan-1-yl-ethyl)-2-cyclohexyl-1H-imidazole-4-carbonyl]-amino}-2-methyl-benzoic Acid], the Kb at gastrin receptor is 64.6 nM. Further, the Ki on CCKB receptor was 55 nM.

With `O=C(O)c1cc(NC(=O)c2nc(C3CCCCC3)[nH]c2CCC23CC4CC(CC(C4)C2)C3)ccc1F` [Example 254, 5-{[5-(2-Adamantan-1-yl-ethyl)-2-cyclohexyl-1H-imidazole-4-carbonyl]-amino}-2-fluoro-benzoic Acid], the Kb on gastrin receptor is 11.7 nM. Moreover, the Ki at CCKB receptor was 12.6 nM.
